Assay [1] has as its target Acetylcholinesterase (Homo sapiens, UniProt P22303). The assay is described as follows: Inhibition of acetylcholinesterase (unknown origin) using acetylthiocholine iodide as substrate incubated for 10 mins followed by substrate addition measured after 20 mins by UV-Vis spectrophotometric analysis.
The target of assay [2] is Cholinesterase (Homo sapiens, UniProt P06276). The assay is described as follows: Inhibition of butyrylcholinesterase (unknown origin) using butyrylthiocholine chloride as substrate incubated for 10 mins followed by substrate addition measured after 20 mins by UV-Vis spectrophotometric analysis.
Sequence of Cholinesterase (P06276 whole entry): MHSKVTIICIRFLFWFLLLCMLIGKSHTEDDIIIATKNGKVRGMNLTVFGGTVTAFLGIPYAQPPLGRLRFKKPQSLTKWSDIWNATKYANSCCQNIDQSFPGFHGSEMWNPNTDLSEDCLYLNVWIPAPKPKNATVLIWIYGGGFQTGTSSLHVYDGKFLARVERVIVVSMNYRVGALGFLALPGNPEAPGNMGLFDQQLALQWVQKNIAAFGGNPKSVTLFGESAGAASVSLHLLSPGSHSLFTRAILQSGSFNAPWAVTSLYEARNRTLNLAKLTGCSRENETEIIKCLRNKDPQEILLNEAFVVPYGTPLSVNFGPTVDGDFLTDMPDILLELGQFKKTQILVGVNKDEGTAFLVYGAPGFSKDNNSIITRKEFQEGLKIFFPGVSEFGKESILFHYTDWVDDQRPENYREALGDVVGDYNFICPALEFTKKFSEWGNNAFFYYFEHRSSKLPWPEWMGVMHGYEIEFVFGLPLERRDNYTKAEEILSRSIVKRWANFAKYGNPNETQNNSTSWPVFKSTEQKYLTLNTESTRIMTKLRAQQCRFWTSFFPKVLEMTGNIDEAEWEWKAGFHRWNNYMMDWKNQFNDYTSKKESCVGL

Sequence of Acetylcholinesterase (P22303 whole entry): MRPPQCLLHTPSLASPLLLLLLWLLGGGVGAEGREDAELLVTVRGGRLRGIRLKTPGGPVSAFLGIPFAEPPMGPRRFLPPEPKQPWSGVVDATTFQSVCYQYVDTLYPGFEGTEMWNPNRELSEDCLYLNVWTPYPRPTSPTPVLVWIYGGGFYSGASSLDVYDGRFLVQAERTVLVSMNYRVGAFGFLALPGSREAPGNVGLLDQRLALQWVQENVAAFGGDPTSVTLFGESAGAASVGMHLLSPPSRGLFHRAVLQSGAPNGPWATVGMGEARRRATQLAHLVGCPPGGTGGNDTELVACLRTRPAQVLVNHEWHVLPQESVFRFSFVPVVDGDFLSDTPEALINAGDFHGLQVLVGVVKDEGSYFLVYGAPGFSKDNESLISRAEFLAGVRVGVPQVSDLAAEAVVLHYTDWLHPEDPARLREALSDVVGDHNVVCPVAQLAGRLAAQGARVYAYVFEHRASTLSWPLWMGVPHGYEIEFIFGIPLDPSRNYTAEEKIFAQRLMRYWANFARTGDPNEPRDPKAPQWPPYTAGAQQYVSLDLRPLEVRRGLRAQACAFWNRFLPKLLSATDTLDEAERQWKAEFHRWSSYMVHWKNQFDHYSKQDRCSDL

As usually defined, the IC50 is the concentration at which inhibition is half-maximal. For `CC(C)Cc1ccc(/C=C2\Oc3ccccc3C2=O)cc1`, the IC50 in assay [1] was determined as 0.98 µM; in assay [2] it was 1.02 µM.

In turn, `COc1ccc(/C=C2\Oc3ccccc3C2=O)cc1` [4'-METHOXY-AURONE] registered an IC50 in assay [1] of 1.26 µM.

In turn, `S=C1/C(=C/c2ccccc2)Oc2ccccc21` registered a half-maximal inhibitory concentration (IC50) in assay [1] of 6.39 µM.

Take `Fc1ccc(/C=C2\Oc3ccccc3C2=S)cc1`: the IC50 in assay [2] was 5.27 µM.

These data come from ChEMBL document CHEMBL3868598, “Synthesis, structure-activity relationship and molecular docking of 3-oxoaurones and 3-thioaurones as acetylcholinesterase and butyrylcholinesterase inhibitors” (Bioorg Med Chem, 2017).
